Assay results reported in patent US20240391882A1 (Mirati Therapeutics, Inc., priority 2023, published 2024).

What was measured:
Assay type in all cases: cell-based
[1] = system: pAKT in T47D (PI3Kα H1047R mutant) cells; test: Inhibition of pAKT (alphaLISA Surefire Ultra AKT 1/2/3 pS473) in T47D cells; conditions: Homo sapiens; T47D (PI3Kα H1047R mutant) cells, 24 hr compound incubation, alphaLISA pS473; read-out: T47D (H1047R) pAKT 24 hr (IC50)
Method in brief: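 AlphaLISA read-out of AKT pS473 in lysates after roughly 24 h compound exposure at 37° C in HBSS. Ten concentrations, 1:4 dilutions from a 10.4 μm top dose. Percent of control uses alpelisib at 3.125 μm as background and DMSO as vehicle; four-parameter curve gives IC50.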

[2] = system: T47D (PI3Kα H1047R mutant) cells; test: Cell viability (CellTiter-Glo 2.0) in T47D cells; conditions: Homo sapiens, T47D, 72 h, approximately 72 hours
Method in brief: (§1)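 IC50 values derive from four-parameter fits of CellTiter-Glo luminescence expressed as percent of vehicle control. Cells (T47D or SKBR3) were plated at 1000/well the day before dosing and incubated about 72 h at 37° C with a 10-point, 1:4 series starting at 10 μm.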

[3] = system: SKBR3 (PI3Kα wild type) cells; test: Cell viability (CellTiter-Glo 2.0) in SKBR3 cells; conditions: Homo sapiens, SK-BR-3; SKBR3 (PI3Kα wild type) cells, approximately 72 hours, CellTiter-Glo 2.0; read-out: SKBR3 (WT) Viability IC50
Method in brief: as §1

| IC50 [1] [nM] | IC50 [2] [nM] | IC50 [3] [nM] | Compound |
| --- | --- | --- | --- |
| 0.5 | 32.1 | > 10000 | Cc1cc([C@@H](C)Nc2ccc(Cl)nc2C(=O)O)c2nc(N3CC4C(C3)C4(F)F)c(C#N)nc2c1 (stereo partly drawn) [Example 21, 6-chloro-3-(((1R)-1-(2-cyano-3-(6,6-difluoro-3-azabicyclo[3.1.0]hexan-3-yl)-7-methylquinoxalin-5-yl)ethyl)amino)picolinic acid] |
| 9.5 | 170 | > 10000 | Cc1cc([C@@H](C)Nc2ccccc2C(=O)O)c2nc(N3CCC(F)(F)CC3)c(C#N)nc2c1 [Example 3, (R)-2-((1-(2-cyano-3-(4,4-difluoropiperidin-1-yl)-7-methylquinoxalin-5-yl)ethyl)amino)benzoate] |
| 4.7 | 128 | > 10000 | Cc1cc([C@@H](C)Nc2ccc(Cl)nc2C(=O)O)c2nc(N3CC(C)(C)C3)c(C#N)nc2c1 [Example 56, (R)-6-chloro-3-((1-(2-cyano-3-(3,3-dimethylazetidin-1-yl)-7-methylquinoxalin-5-yl)ethyl)amino)picolinic acid] |
| 20 | 1030 | > 10000 | Cc1cc([C@@H](C)Nc2ccc(Cl)nc2C(=O)O)c2nc(-c3ccc(=O)n(C)c3)c(C#N)nc2c1 [Example 223, (R)-6-chloro-3-((1-(2-cyano-7-methyl-3-(1-methyl-6-oxo-1,6-dihydropyridin-3-yl)quinoxalin-5-yl)ethyl)amino)picolinic acid] |
| 0.89 | 52.8 | > 10000 | COC[C@@H]1CN(c2nc3c([C@@H](C)Nc4ccc(Cl)nc4C(=O)O)cc(C)cc3nc2C#N)CCO1 [Example 236A, 6-chloro-3-(((R)-1-(2-cyano-3-((S)-2-(methoxymethyl)morpholino)-7-methylquinoxalin-5-yl)ethyl)amino)picolinic acid] |
| 1.2 | 76 | > 10000 | Cc1cc([C@@H](C)Nc2ccc(Cl)nc2C(=O)O)c2nc(N3CCC[C@@H]([C@@H](C)O)C3)c(C#N)nc2c1 [Example 261D, 6-chloro-3-(((R)-1-(2-cyano-3-((R)-3-((R)-1-hydroxyethyl)piperidin-1-yl)-7-methylquinoxalin-5-yl)ethyl)amino)picolinic acid] |
| 25.1 | 559 | 2220 | Cc1cc([C@@H](C)Nc2cccnc2C(=O)O)c2nc(N3CCOCC3)c(C#N)nc2c1 [Example 203, (R)-3-((1-(2-cyano-7-methyl-3-morpholinoquinoxalin-5-yl)ethyl)amino)picolinic acid] |
| 58.1 | 393 | 1850 | Cc1cc([C@@H](C)Nc2cccnc2C(=O)O)c2nc(N3CCC(F)(F)C3)c(C#N)nc2c1 [Example 204, (R)-3-((1-(2-cyano-3-(3,3-difluoropyrrolidin-1-yl)-7-methylquinoxalin-5-yl)ethyl)amino)picolinic acid] |
| 6.8 | 158 | 6220 | Cc1cc([C@@H](C)Nc2ccc(Cl)nc2C(=O)O)c2nc(N3C[C@@H](F)C[C@@H]3C)c(C#N)nc2c1 [Example 246D, 6-chloro-3-(((R)-1-(2-cyano-3-((2S,4S)-4-fluoro-2-methylpyrrolidin-1-yl)-7-methylquinoxalin-5-yl)ethyl)amino)picolinic acid] |
| 24.4 | 391 | > 10000 | Cc1cc([C@@H](C)Nc2ccccc2C(=O)O)c2nc(N3CCCC3)c(C#N)nc2c1 [Example 68, (R)-2-((1-(2-cyano-7-methyl-3-(pyrrolidin-1-yl)quinoxalin-5-yl)ethyl)amino)benzoic acid] |
| 1.3 | 44 | > 10000 | COC1(C)CN(c2nc3c([C@@H](C)Nc4ccc(Cl)nc4C(=O)O)cc(C)cc3nc2C#N)C1 [Example 64, (R)-6-chloro-3-((1-(2-cyano-3-(3-methoxy-3-methylazetidin-1-yl)-7-methylquinoxalin-5-yl)ethyl)amino)picolinic acid] |
| 0.69 | 64 | > 10000 | Cc1cc([C@@H](C)Nc2ccc(Cl)nc2C(=O)O)c2nc(N3CCc4ccc(C#N)cc4C3)c(C#N)nc2c1 [Example 217, (R)-6-chloro-3-((1-(2-cyano-3-(7-cyano-3,4-dihydroisoquinolin-2(1H)-yl)-7-methylquinoxalin-5-yl)ethyl)amino)picolinic acid] |
| 1.2 | 57 | > 10000 | Cc1cc([C@@H](C)Nc2ccc(Cl)nc2C(=O)O)c2nc(N3CC4CC[C@@]4(F)C3)c(C#N)nc2c1 (single isomer, unassigned) [Example 244A] |
| 1.8 | 262 | > 10000 | Cc1cc([C@@H](C)Nc2ccc(Cl)nc2C(=O)O)c2nc(N3CCO[C@@H](CO)C3)c(C#N)nc2c1 [Example 235B, 6-chloro-3-(((R)-1-(2-cyano-3-((R)-2-(hydroxymethyl)morpholino)-7-methylquinoxalin-5-yl)ethyl)amino)picolinic acid] |
| 1.8 | 61 | 4920 | Cc1cc([C@@H](C)Nc2ccc(Cl)nc2C(=O)O)c2nc(N3C[C@H](F)C[C@@H]3C)c(C#N)nc2c1 [Example 246B, 6-chloro-3-(((R)-1-(2-cyano-3-((2S,4R)-4-fluoro-2-methylpyrrolidin-1-yl)-7-methylquinoxalin-5-yl)ethyl)amino)picolinic acid] |
| 94.6 | 588 | > 10000 | C[C@@H](Nc1ccccc1C(=O)O)c1cc(C2CC2)cc2nc(C#N)c(N3CCC(F)(F)CC3)nc12 [Example 37, (R)-2-((1-(2-cyano-7-cyclopropyl-3-(4,4-difluoropiperidin-1-yl)quinoxalin-5-yl)ethyl)amino)benzoic acid] |
| 6.2 | 48.2 | > 10000 | C[C@@H](Nc1ccc(Cl)nc1C(=O)O)c1cc(Cl)cc2nc(C#N)c(N3CCC(F)(F)CC3)nc12 [Example 34, (R)-6-chloro-3-((1-(7-chloro-2-cyano-3-(4,4-difluoropiperidin-1-yl)quinoxalin-5-yl)ethyl)amino)picolinic acid] |
| 2.1 | 50.2 | 9650 | Cc1cc([C@@H](C)Nc2ccc(Cl)nc2C(=O)O)c2nc(N3CCCC3)c(C#N)nc2c1 [Example 69, (R)-6-chloro-3-((1-(2-cyano-7-methyl-3-(pyrrolidin-1-yl)quinoxalin-5-yl)ethyl)amino)picolinic acid] |
| 1.8 | 51.5 | 9800 | C[C@@H](Nc1ccc(Cl)nc1C(=O)O)c1cc(F)cc2nc(C#N)c(N3CCC(F)(F)CC3)nc12 [Example 26, (R)-6-chloro-3-((1-(2-cyano-3-(4,4-difluoropiperidin-1-yl)-7-fluoroquinoxalin-5-yl)ethyl)amino)picolinic acid] |
| 93.7 | 1170 | > 10000 | Cc1cc([C@@H](C)Nc2ccccc2C(=O)O)c2nc(N3CCC(F)(F)CC3)c(C)nc2c1 [Example 36, (R)-2-((1-(3-(4,4-difluoropiperidin-1-yl)-2,7-dimethylquinoxalin-5-yl)ethyl)amino)benzoic acid] |
